From patent US9199965B2, “Benzoimidazole derivatives and pharmaceutical composition comprising the same” (Daewoong Co., Ltd., priority 2005, dated 2015)

How the values were obtained:
[1] = test system: ICR male mice (PBQ-induced writhing); assay: PBQ-induced writhing test for analgesic effect; format: in vivo; settings: Mus musculus, 1 h, 20 mg/kg oral, one hour before intraabdominal PBQ (0.02%), read-out: % Inhibition (decrease in number of writhes compared to control)
Protocol: A PBQ-induced writhing test was conducted in mice to assay for the analgesic effect of the novel compounds. Five-week-old ICR male mice were treated with PBQ (phenyl-p-quinone, 0.02%). A suspension of 20 mg of test material in 10 mL of physiological saline was used per kg of weight of mice. Test materials in combination with a carrier were orally administered one hour before the intraabdominal injection of PBQ in a dose of 10 mL per kg weight. From 5 min after the injection, individual mice in each test group were measured for numbers of writhes at regular intervals of 10 min. Analgesic effects of test compounds were expressed as percentages of the decrease in number of writhes compared to a control. [% Inhibition=(Control administered with carrier alone−Group administered with test material)/control administered with carrier alone×100]

rat TRPV1 = biological target: T1, rat TRPV1 (Rattus norvegicus, UniProt O35433); assay: Assay for inhibitory activity against VR1 patch clamp activity (capsaicin current, inside-out patch); format: cell-based; settings: 1 μM compound with 10 μM capsaicin; rat TRPV1-transfected HEK293, inside-out patch; relative to capsaicin current before compound
T1 construct: expressed in transfected cells; host or cells: HEK293
Protocol: Each of the compounds synthesized in the examples were dissolved in dimethyl sulfoxide (DMSO) at a concentration of 10 mM. For use in the assay for inhibitory activity against patch clamp activity, the solutions were diluted to a concentration of 1 μM with the same physiological saline as in the pipette solution of Table 1, below.
2) Assay for Inhibitory Activity Against VR1 Patch Clamp Activity
In this experiment, changes in VR1 activity were recorded in current using an electrophysiological technique.
For use in this experiment, a rat TRPV1 cDNA was transfected into a subcultured HEK293 strain with the aid of lipofectamin.
The rat TRPV1 gene-transfected HEK293 cells were detached from the cell culture dishes with trypsin and distributed on a patch clamp recording chamber.
A cover glass slip on the bottom of the patch clamp recording chamber was treated for 15 min or longer with a […] poly-L-lysine solution so that the HEK cells would readily adhere thereto. Cellular membranes were ruptured at room temperature (˜25° C.) from randomly selected HEK cells to perform an inside-out patch clamp technique. 10 μM of capsaicin was fed into the chamber (cytoplasmic side) to activate a capsaicin current through the VR1. When the capsaicin current reached a stable stage, each compound was added along with 10 μM of capsaicin to record the inhibitory activity of the compounds with regard to the current. The inhibition was expressed as percentages.
Detected current was amplified using a Digidata 1200B A/D converter and an Axopatch 1D amplifier (Axon instruments Inc.), and the data were recorded and analyzed with the aid of a computer. The inhibitory activity of each compound was expressed as a percentage relative to the capsaicin current immediately before the administration of each compound.

human vanilloid-1 (hVR1) = biological target: T2, human vanilloid-1 (hVR1) (Homo sapiens, UniProt Q8NER1); assay: Calcium influx of vanilloid receptor in hVR1-HEK293 cells (capsaicin-induced, Fluo-3/AM); format: cell-based; settings: 1 μM capsaicin-induced intracellular calcium influx, read-out: Inhibitory Activity IC50
T2 construct: expressed in transfected cells; host or cells: HEK293 Tet-on (hVR1-HEK293), doxycycline-induced
Protocol: Experiments for calcium influx were performed to measure the activity of the compounds as antagonists.
The cell strain hVR1-HEK293 is the human embryonic kidney (HEK) 293 Tet-on cell transfected with a human vanilloid-1 gene (pTRE2hyg-hVR1, 7.8 kb), which is capable of controlling the expression of VR1 according to the administration of deoxycycline, a tetracycline derivative analog. In a medium supplemented with deoxycycline two days before calcium influx experiments, the cell strain was cultured to induce the expression of VR1. After being grown to a confluency of about 80% in T75 flasks, hVR1-HEK293 was detached from the flask using trypsin. Cells harvested by centrifugation were suspended in a medium supplemented with 1 μg/mL of deoxycycline and diluted to a density of 2-4×10^5 cells/mL, after which a 100 μL aliquot of the cell suspension was added to each well of 96 well black plates. Before the measurement of calcium influx, the cells were incubated for two days at 37° C. in a 5% CO2 incubator.
For use in calcium influx experiments, each compound was dissolved in dimethyl sulfoxide (DMSO).
To measure an intracellular calcium influx, cells were incubated at 37° C. for 90 min in a medium containing the calcium indicator Fluo-3/AM so as to allow the fluorescent dye to penetrate into the cells. Then, the cells were washed three times with D-PBS (Dulbecco's phosphate buffered saline) containing 10 mM HEPES to remove the fluorescent dye which remained outside. 193 μL aliquot of D-PBS was added to each well, followed by the addition of various concentrations of compounds thereto. In order to measure the antagonistic activity of the compounds, calcium influx was induced by treatment with 1 μM capsaicin. The inhibitory effect of each compound on 1 μM capsaicin-induced intracellular calcium influx according to compound concentration was measured using a fluorescent analyzer and the data thus obtained were analyzed on the basis of the Hill's equation.

T2 sequence (Q8NER1 whole entry): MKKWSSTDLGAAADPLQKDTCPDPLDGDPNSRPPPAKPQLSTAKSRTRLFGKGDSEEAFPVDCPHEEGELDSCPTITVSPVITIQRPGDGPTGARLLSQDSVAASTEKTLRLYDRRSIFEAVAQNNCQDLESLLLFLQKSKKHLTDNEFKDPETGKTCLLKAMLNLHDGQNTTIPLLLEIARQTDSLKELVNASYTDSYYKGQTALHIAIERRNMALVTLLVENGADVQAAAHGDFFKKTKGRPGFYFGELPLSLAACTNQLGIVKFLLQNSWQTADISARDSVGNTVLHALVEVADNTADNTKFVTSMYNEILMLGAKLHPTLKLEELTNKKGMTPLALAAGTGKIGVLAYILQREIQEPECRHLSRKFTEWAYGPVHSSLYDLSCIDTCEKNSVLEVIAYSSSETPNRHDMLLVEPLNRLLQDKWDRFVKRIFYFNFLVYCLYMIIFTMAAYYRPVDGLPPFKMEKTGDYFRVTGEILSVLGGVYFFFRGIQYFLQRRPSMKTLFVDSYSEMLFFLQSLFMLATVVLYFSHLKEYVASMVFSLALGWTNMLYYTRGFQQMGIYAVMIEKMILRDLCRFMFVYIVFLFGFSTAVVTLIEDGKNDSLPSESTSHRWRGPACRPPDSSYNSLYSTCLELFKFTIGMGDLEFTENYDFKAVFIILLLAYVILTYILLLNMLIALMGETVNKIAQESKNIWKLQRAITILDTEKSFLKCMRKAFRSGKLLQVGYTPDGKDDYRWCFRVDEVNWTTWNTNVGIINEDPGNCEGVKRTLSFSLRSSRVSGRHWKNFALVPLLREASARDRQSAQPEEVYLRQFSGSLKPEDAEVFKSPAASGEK
T1 sequence (O35433 whole entry): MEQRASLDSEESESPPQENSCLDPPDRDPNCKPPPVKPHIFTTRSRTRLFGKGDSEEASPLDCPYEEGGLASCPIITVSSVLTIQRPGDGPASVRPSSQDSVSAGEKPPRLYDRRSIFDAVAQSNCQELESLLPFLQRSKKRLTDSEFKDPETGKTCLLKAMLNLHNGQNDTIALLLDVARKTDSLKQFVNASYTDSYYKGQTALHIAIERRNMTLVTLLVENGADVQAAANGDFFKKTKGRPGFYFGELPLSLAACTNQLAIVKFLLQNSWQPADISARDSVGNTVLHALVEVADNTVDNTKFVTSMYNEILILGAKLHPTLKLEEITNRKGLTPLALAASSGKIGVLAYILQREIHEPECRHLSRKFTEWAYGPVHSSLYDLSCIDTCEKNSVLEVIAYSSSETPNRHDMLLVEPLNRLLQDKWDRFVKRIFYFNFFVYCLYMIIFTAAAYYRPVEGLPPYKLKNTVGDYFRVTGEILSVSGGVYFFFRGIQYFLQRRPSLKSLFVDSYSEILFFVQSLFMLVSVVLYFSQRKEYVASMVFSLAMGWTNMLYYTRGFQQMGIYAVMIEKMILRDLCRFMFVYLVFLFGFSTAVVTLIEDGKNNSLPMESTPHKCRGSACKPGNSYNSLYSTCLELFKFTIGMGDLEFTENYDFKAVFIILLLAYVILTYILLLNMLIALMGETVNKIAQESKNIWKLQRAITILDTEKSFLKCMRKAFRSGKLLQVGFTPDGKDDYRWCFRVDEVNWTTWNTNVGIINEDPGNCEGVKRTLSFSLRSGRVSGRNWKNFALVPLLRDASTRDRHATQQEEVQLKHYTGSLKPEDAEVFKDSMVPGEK

Row | Compound | inhibition in vivo at 20 mg/kg [1] [%] | inhibition at 1 µM (rat TRPV1) [%] | IC50 (human vanilloid-1 (hVR1)) [nM]
1 | FC(F)(F)c1ccc2nc(-c3ccc(-c4ncccc4C(F)(F)F)cn3)[nH]c2c1 [Compound 158, 3-trifluoromethyl-6′-(6-trifluoromethyl-1H-benzoimidazole-2-yl)-[2,3′]bipyridine] | 53 | 69 | 14
2 | CC(C)(C)c1ccc2nc(-c3ccc(-c4ncc(Cl)cc4Cl)cc3)[nH]c2c1 [Compound 25, 6-tert-butyl-2-[4-(3,5-dichloropyridin-2-yl)phenyl]-1H-benzoimidazole] | 23 | – | 100
3 | FC(F)(F)c1cc(Cl)c2nc(-c3ccc(-c4ncccc4Cl)cc3)[nH]c2c1 [Compound 6, 4-chloro-2-[4-(3-chloropyridin-2-yl)phenyl]-6-trifluoromethyl-1H-benzoimidazole] | 33 | 94 | 11
4 | FC(F)(F)c1cccnc1-c1ccc(-c2nc3ccc(Br)cc3[nH]2)cc1 [Compound 37, 6-bromo-2-(4-(3-(trifluoromethyl)pyridin-2-yl)phenyl)-1H-benzoimidazole] | 50 | – | 75
5 | FC(F)(F)c1cc(C(F)(F)F)c2nc(-c3ccc(-c4ncccc4Cl)cn3)[nH]c2c1 [Compound 139, 6′-(4,6-bistrifluoromethyl-1H-benzoimidazole-2-yl)-3-chloro-[2,3′]bipyridine] | 26 | 89 | 38
6 | FC(F)(F)c1cc(C(F)(F)F)c2nc(-c3ccc(-c4ncccc4C(F)(F)F)cn3)[nH]c2c1 [Compound 162, 6′-(4,6-bistrifluoromethyl-1H-benzoimidazole-2-yl)-3-trifluoromethyl-[2,3′]bipyridine] | 28 | 99 | 14
7 | FC(F)(F)c1cccnc1-c1ccc(-c2nc3ccc(Br)cc3[nH]2)nc1 [Compound 165, 6-bromo-2-(5-(3-(trifluoromethyl)pyridin-2-yl)pyridin-2-yl)-1H-benzoimidazole] | 60 | – | 28
8 | FC(F)(F)c1cc(Br)c2nc(-c3ccc(-c4ncccc4C(F)(F)F)cn3)[nH]c2c1 [Compound 164, 4-bromo-6-(trifluoromethyl)-2-(5-(3-(trifluoromethyl)pyridin-2-yl)pyridin-2-yl)-1H-benzoimidazole] | 53 | – | 9
9 | FC(F)(F)c1cc(Cl)c2nc(-c3ccc(-c4ncccc4Cl)cn3)[nH]c2c1 [Compound 138, 3-chloro-6′-(4-chloro-6-trifluoromethyl-1H-benzoimidazole-2-yl)-[2,3′]bipyridine] | 22 | 73 | 16
10 | CC(C)(C)c1ccc2nc(-c3ccc(-c4ncccc4Cl)c4ccccc34)[nH]c2c1 [Compound 105, 6-tert-butyl-2-[4-(3-chloropyridin-2-yl)naphthalen-1-yl]-1H-benzoimidazole] | 50 | 78 | 24
11 | FC(F)(F)c1cc(C(F)(F)F)c2nc(-c3ccc(-c4ncccc4C(F)(F)F)cc3)[nH]c2c1 [Compound 33, 4,6-bistrifluoromethyl-2-[4-(3-trifluoromethylpyridin-2-yl)phenyl]-1H-benzoimidazole] | 31 | 10 | 10
12 | CS(=O)(=O)Nc1ccc(-c2ccc(-c3nc4c(C(F)(F)F)cc(C(F)(F)F)cc4[nH]3)cc2)cc1F [Compound 29, N-[4′-(4,6-bistrifluoromethyl-1H-benzoimidazole-2-yl)-3-fluorobiphenyl-4-yl]methanesulfonamide] | 41 | 50 | 4
13 | CC(C)(C)c1ccc2nc(-c3ccc(-c4ncccc4Cl)cc3)[nH]c2c1 [Compound 3, 6-tert-butyl-2-[4-(3-chloropyridin-2-yl)phenyl]-1H-benzoimidazole] | 58 | 100 | 61
14 | FC(F)(F)c1cc(Cl)c2nc(-c3ccc(-c4ncccc4C(F)(F)F)cc3)[nH]c2c1 [Compound 31, 4-chloro-6-trifluoromethyl-2-[4-(3-trifluoromethylpyridin-2-yl)phenyl]-1H-benzoimidazole] | 35 | 66 | 8
15 | CC(C)(C)c1ccc2nc(-c3ccc(-c4ncccc4Cl)cc3F)[nH]c2c1 [Compound 67, 6-tert-butyl-2-[4-(3-chloropyridin-2-yl)-2-fluorophenyl]-1H-benzoimidazole] | 23 | 80 | 122
16 | FC(F)(F)c1cccnc1-c1ccc(-c2nc3cc(Cl)c(Cl)cc3[nH]2)nc1 [Compound 163, 6′-(5,6-dichloro-1H-benzoimidazole-2-yl)-3-trifluoromethyl-[2,3′]bipyridine] | 41 | – | 15
17 | FC(F)(F)c1ccc2nc(-c3ccc(-c4ncccc4Cl)cc3)[nH]c2c1 [Compound 1, 2-[4-(3-Chloropyridin-2-yl)-phenyl]-6-trifluoromethyl-1H-benzoimidazole] | 33 | 100 | 130
18 | FC(F)(F)c1cc(Br)c2nc(-c3ccc(-c4ncccc4C(F)(F)F)cc3)[nH]c2c1 [Compound 36, 4-bromo-6-(trifluoromethyl)-2-(4-(3-(trifluoromethyl)pyridin-2-yl)phenyl)-1H-benzoimidazole] | 70 | – | 94
19 | FC(F)(F)c1cnc2nc(-c3ccc(-c4ncccc4Cl)c4ccccc34)[nH]c2c1 [Compound 107, 2-[4-(3-chloropyridin-2-yl)naphthalen-1-yl]-6-trifluoromethyl-1H-imidazo[4,5-b]pyridine] | 46 | 97 | 17
